Test results: PMC6081875 (EJNMMI Research, 2018)

What was measured:
[1] = Abdominal effective half-life from sequential quantitative SPECT (mono-exponential fit); type: in vivo
Experimental: (§1) Data for dosimetry were acquired during a routine 4-day in-patient stay following the radiopharmaceutical injection, in conjunction with standard clinical examinations. All patients received a 15-min one-bed abdominal SPECT scan and a 20-min whole-body planar scintigraphy at 24, 48, and 72 h post-injection (p. i.) on a dual-headed Symbia T2 SPECT/CT (Siemens Medical Solutions, Erlangen, Germany). Counts were detected for the photopeak window of 208 keV (width 15%) by the usage of a medium-energy low-penetration collimator. Two additional scatter windows were measured at 170 keV (width 15%) and 240 keV (width 10%). A low-dose AC-CT was acquired at the first image acquisition session for anatomical correlation and attenuation correction during quantitative SPECT reconstruction. For the determination of the absorbed dose to the bone marrow from the activity circulating in the blood, five venous blood samples were drawn from the site contralateral to injection at 30 and 80 min p. i. and 24, 48, and 72 h p. i..
(§2) Quantitative SPECT images were reconstructed as described by Delker et al. via a rotation-based, penalised, one-step-late ordered subset expectation maximisation algorithm, which included corrections for scatter, attenuation, and distance-dependent geometrical collimator blur. Attenuation correction was performed for each SPECT scan via the AC-CT, which was acquired along with the SPECT scan 24 h post-injection. To apply the attenuation correction, especially to the SPECT scans 48 and 72 h p. i., the single AC-CT was co-registered onto an initial SPECT reconstruction without attenuation correction by using a rigid body co-registration algorithm with six degrees of freedom (PMOD Version 3.609, PMOD Technologies, Zurich, Switzerland). If only one AC-CT is acquired for sequential SPECT imaging, special care has to be taken to minimise misregistration between SPECT images and separately acquired CT scans, as such a misalignment can distort the proper attenuation correction and, thus, activity quantification. This is in principal also true for serial SPECT and CT imaging, as even within a single image acquisition session patient movements cannot be entirely avoided. Scatter correction employed the triple energy window (TEW) method. Correction for distance-dependent collimator blur made use of a Gaussian blur model. Corrections for partial volume effects and dead time were not applied. For conversion of the measured counts per second and per voxel to Becquerel per millilitre, an appropriate calibration factor was determined. Therefore, we used a large cylinder of approximately 20 cm diameter, which was filled with a known activity concentration and which has been imaged and reconstructed via the same protocol.
First, the abdominal effective decay constant λSPECT was derived via a mono-exponential fit to the total activity in the SPECT scans 24, 48, and 72 h post-therapy. Especially, all organs and all tumours were included in the fitting of the TAC, as it was the case for the determination of A~WB from the reference protocol. This effective decay constant λSPECT serves as a surrogate for the reference-protocol-based whole-body effective decay constant (Fig. 2). The mono-exponential SPECT-based abdominal TAC was then scaled with a chosen base point. This base point is defined via the whole-body activity AWB(t^∗) of a single whole-body planar image acquired at an arbitrary time point t^∗∈ 24, 48, or 72 h post-therapy. The resulting pseudo-whole-body TAC AWB, pseudo(t) is intended to serve as an estimate of the reference-protocol-based whole-body TAC (Eq. (7.1)) and can be further used to determine a pseudo-whole-body time-integrated activity A~WB,pseudo (Eq. (7.2)).

bone marrow = experiment: Bone marrow dosimetry, reference protocol (RP): sequential whole-body planar and quantitative SPECT images plus blood samples, organ-level S values; type: in vivo
Experimental: as §1, §2
For each patient, all acquired whole-body planar images were corrected for scatter and attenuation on a pixel basis via a dedicated MATLAB routine (Fig. 1); for the correction of scatter, the TEW method was applied, as for the quantitative SPECT images. For the attenuation correction, a linear projection of μ values along the ventral axis of the patient was created from the diagnostic CT image of the pre-therapeutic Ga-68 PET/CT scan, which covered nearly the whole patient body from the middle of the head to approximately the knees. Therefore, a conversion between the Hounsfield units (HUs) in the diagnostic CT and the μ values at 208 keV was established by acquiring a CT scan of a Gammex tissue phantom (Gammex 467; Gammex, Inc., Middleton, WI) with 16 tissue rods of known composition and thus known attenuation characteristics. The μ values of all rods were plotted against the measured HUs, and a bilinear fit model (range 1: HU = (− 688;0); range 2: HU = (0;1127)) was applied to the whole data set. This calibration curve allows for the assignment of μ values to a continuous range of HUs. […]

[2] = mono-exponential fit to total activity in abdominal SPECT 24, 48, 72 h p. i., median of n = 5 patients per therapy
[3] = median of n = 5 patients per therapy, approx. 7.4 GBq Lu-177-Octreotate (NET) or 3.7 GBq Lu-177-PSMA-617 (mCRPC)

## C[C@@H](O)[C@H](NC(=O)[C@@H]1CSSC[C@H](NC(=O)[C@@H](Cc2ccccc2)NC(=O)CN2CCN(CC(=O)O)CCN(CC(=O)O)CCN(CC(=O)O)CC2)C(=O)N[C@@H](Cc2ccc(O)cc2)C(=O)N[C@H](Cc2c[nH]c3ccccc23)C(=O)N[C@@H](CCCCN)C(=O)N[C@@H]([C@@H](C)O)C(=O)N1)C(=O)O [Lu-177-Octreotate, Lu-177-[DOTA^0,Tyr^3]-Octreotate, metal not drawn]
[1]; [2]
  T1/2, SPECT, SPECT-based abdominal effective half-life: 61 h
[1]; mono-exponential fit, abdominal SPECT 24, 48, 72 h p. i., patient P1 (NET)
  T1/2, SPECT, SPECT-based abdominal effective half-life: 53 h
[1]; mono-exponential fit, abdominal SPECT 24, 48, 72 h p. i., patient P2 (NET)
  T1/2, SPECT, SPECT-based abdominal effective half-life: 61 h
[1]; mono-exponential fit, abdominal SPECT 24, 48, 72 h p. i., patient P3 (NET)
  T1/2, SPECT, SPECT-based abdominal effective half-life: 56 h
[1]; mono-exponential fit, abdominal SPECT 24, 48, 72 h p. i., patient P4 (NET)
  T1/2, SPECT, SPECT-based abdominal effective half-life: 73 h
[1]; mono-exponential fit, abdominal SPECT 24, 48, 72 h p. i., patient P5 (NET)
  T1/2, SPECT, SPECT-based abdominal effective half-life: 87 h
Bone marrow; [3]
  DBM ← total, total bone marrow absorbed dose, RP: 12.1 mGy/GBq
Bone marrow; patient P1 (NET, 7654 MBq)
  DBM ← total, total bone marrow absorbed dose, RP: 12.1 mGy/GBq
Bone marrow; patient P2 (NET, 7425 MBq)
  DBM ← total, total bone marrow absorbed dose, RP: 9.6 mGy/GBq
Bone marrow; patient P3 (NET, 7420 MBq)
  DBM ← total, total bone marrow absorbed dose, RP: 15.6 mGy/GBq
Bone marrow; patient P4 (NET, 7409 MBq)
  DBM ← total, total bone marrow absorbed dose, RP: 11.8 mGy/GBq
Bone marrow; patient P5 (NET, 7410 MBq)
  DBM ← total, total bone marrow absorbed dose, RP: 12.7 mGy/GBq

## O=C(O)CC[C@H](NC(=O)N[C@@H](CCCCNC(=O)[C@H](Cc1ccc2ccccc2c1)NC(=O)[C@H]1CC[C@H](CNC(=O)CN2CCN(CC(=O)O)CCN(CC(=O)O)CCN(CC(=O)O)CC2)CC1)C(=O)O)C(=O)O [Lu-177-PSMA-617, Lu-177-DKFZ-PSMA-617, metal not drawn]
[1]; [2]
  T1/2, SPECT, SPECT-based abdominal effective half-life: 42 h
[1]; mono-exponential fit, abdominal SPECT 24, 48, 72 h p. i., patient P6 (mCRPC)
  T1/2, SPECT, SPECT-based abdominal effective half-life: 33 h
[1]; mono-exponential fit, abdominal SPECT 24, 48, 72 h p. i., patient P7 (mCRPC)
  T1/2, SPECT, SPECT-based abdominal effective half-life: 50 h
[1]; mono-exponential fit, abdominal SPECT 24, 48, 72 h p. i., patient P8 (mCRPC)
  T1/2, SPECT, SPECT-based abdominal effective half-life: 67 h
[1]; mono-exponential fit, abdominal SPECT 24, 48, 72 h p. i., patient P9 (mCRPC)
  T1/2, SPECT, SPECT-based abdominal effective half-life: 31 h
[1]; mono-exponential fit, abdominal SPECT 24, 48, 72 h p. i., patient P10 (mCRPC)
  T1/2, SPECT, SPECT-based abdominal effective half-life: 42 h
Bone marrow; [3]
  DBM ← total, total bone marrow absorbed dose, RP: 10.2 mGy/GBq
Bone marrow; patient P6 (mCRPC, 3718 MBq)
  DBM ← total, total bone marrow absorbed dose, RP: 10.2 mGy/GBq
Bone marrow; patient P7 (mCRPC, 3743 MBq)
  DBM ← total, total bone marrow absorbed dose, RP: 6.7 mGy/GBq
Bone marrow; patient P8 (mCRPC, 3745 MBq)
  DBM ← total, total bone marrow absorbed dose, RP: 16.8 mGy/GBq
Bone marrow; patient P9 (mCRPC, 3752 MBq)
  DBM ← total, total bone marrow absorbed dose, RP: 14.2 mGy/GBq
Bone marrow; patient P10 (mCRPC, 3700 MBq)
  DBM ← total, total bone marrow absorbed dose, RP: 8.3 mGy/GBq
